In patent US12606541B2, “PPARg modulators and methods of use” (Eisai R&D Management Co., Ltd., priority 2020, dated 2026):
Where two headings read alike, the source gives them in different places.

Key:
His6-TEV-PPARγ-(234-505) = target: T1, His6-TEV-PPARγ-(234-505) (Homo sapiens, UniProt P37231); test: TR-FRET Assay to Measure Co-R Peptide Recruitment to PPARγ; type: biochemical; settings: Co-R peptide (SMRT-ID2) recruitment; top final concentration 20 μM; read-out: TR-FRET i-Ag; AC50
T1 construct: The His6-TEV-PPARγ-(234-505) protein for assay was expressed and purified; TEV cleavage site (N); made in house
T1 sequence (P37231 234-505): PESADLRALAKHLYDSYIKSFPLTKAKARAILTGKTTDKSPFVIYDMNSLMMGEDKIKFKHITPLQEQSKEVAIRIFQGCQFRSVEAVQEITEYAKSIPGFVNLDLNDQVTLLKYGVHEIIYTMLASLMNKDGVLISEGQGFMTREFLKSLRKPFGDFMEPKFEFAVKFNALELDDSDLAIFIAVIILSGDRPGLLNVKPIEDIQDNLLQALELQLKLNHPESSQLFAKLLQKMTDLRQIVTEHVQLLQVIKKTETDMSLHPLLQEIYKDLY
Method in brief: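 Corepressor recruitment is measured by adding terbium-labeled anti-His antibody and FITC SMRT-ID2 peptide, at 5 and 200 nM final, after a 20-minute room-temperature protein–compound incubation. After one further hour, signal is converted to percent response between DMSO and 500 nM T0070907 wells.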

UM-UC-9 engineered cells = test: Cell proliferation / short-term viability assay, CellTiter-Glo 144 h; type: cell-based, human; settings: read-out: CTGlo 144 h UMUC9.5, G150
Method in brief: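 Viability read by CellTiter-Glo 2.0 luminescence at day 7 versus DMSO-vehicle wells and a T0 plate measured on day 0. Cells: UM-UC-9 engineered assay-ready stocks, 500 cells/well in high-glucose DMEM with 10% FBS, 37° C, 5% CO2.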

| AC50 (His6-TEV-PPARγ-(234-505)) [nM] | Molecule | IC50 (UM-UC-9 engineered cells; Homo sapiens, UM-UC-9, 144 h) [nM] | IC50 (UM-UC-9 engineered cells) [nM] |
| --- | --- | --- | --- |
| 9.2 | COc1cc(-c2cc(C(=O)N3CC[C@H](C(=O)NCc4ncc(N5CC(C#N)C5)cc4Cl)CC34CC4)n[nH]2)c(F)cn1 [Example 393, (S)—N-((3-chloro-5-(3-cyanoazetidin-1-yl)pyridin-2-yl)methyl)-4-(5-(5-fluoro-2-methoxypyridin-4-yl)-1H-pyrazole-3-carbonyl)-4-azaspiro[2.5]octane-7-carboxamide] | 106 |  |
| 42.8 | COc1cc(-c2cc(C(=O)N3CCC(C(=O)NCC4CCn5cncc5C4)CC34CC4)n[nH]2)c(F)cn1 (single isomer, unassigned) [Example 342-B] |  | 682 |
| 305 | COc1cc(-c2cc(C(=O)N3CC[C@H](C(=O)NC4CCC5(CCCN5)CC4)CC34CC4)n[nH]2)c(F)cn1 (stereo partly drawn) [Example 348, (S)-4-(5-(5-fluoro-2-methoxypyridin-4-yl)-1H-pyrazole-3-carbonyl)-N-(1-azaspiro[4.5]decan-8-yl)-4-azaspiro[2.5]octane-7-carboxamide] | > 10000 |  |
| 51.1 | COc1cc(-c2cc(C(=O)N3CC[C@H](C(=O)NC4CCC(C(F)(F)F)C(O)C4)CC34CC4)n[nH]2)c(F)cn1 (single isomer, unassigned) [Example 501-B] |  | 258 |
| 16 | COc1cc(-c2cc(C(=O)N3CCC(C(=O)NC4CCC(O)(C(F)(F)F)CC4)CC3(C)C)n[nH]2)c(F)cn1 (single isomer, unassigned) [Example 407-A] |  | 14 |
| 88.6 | COc1cc(-c2cc(C(=O)N3CC[C@H](C(=O)NCc4nc(C)c(C)n4C)CC34CC4)n[nH]2)c(F)cn1 [Example 465, (S)-4-(5-(5-fluoro-2-methoxypyridin-4-yl)-1H-pyrazole-3-carbonyl)-N-((1,4,5-trimethyl-1H-imidazol-2-yl)methyl)-4-azaspiro[2.5]octane-7-carboxamide] | 842 |  |
| 5 | COc1cc(-c2cc(C(=O)N3CC[C@H](C(=O)Nc4cnn5ccc(Cl)nc45)CC34CC4)n[nH]2)c(F)cn1 [Example 430, (S)—N-(5-chloropyrazolo[1,5-a]pyrimidin-3-yl)-4-(5-(5-fluoro-2-methoxypyridin-4-yl)-1H-pyrazole-3-carbonyl)-4-azaspiro[2.5]octane-7-carboxamide] | 8.4 |  |
| 7.7 | COc1cc(-c2cc(C(=O)N3CC[C@H](C(=O)N[C@H]4CC[C@@](OC[C@H](C)N)(C(F)(F)F)CC4)CC34CC4)n[nH]2)c(F)cn1 [Example 352, (S)—N-((1548)-4-((S)-2-aminopropoxy)-4-(trifluoromethyl)cyclohexyl)-4-(5-(5-fluoro-2-methoxypyridin-4-yl)-1H-pyrazole-3-carbonyl)-4-azaspiro[2.5]octane-7-carboxamide] | 134 |  |
| 3.7 | COc1cc(-c2cc(C(=O)N3CC[C@H](C(=O)NCc4ncc(F)cc4Cl)CC34CC4)n[nH]2)c(F)cn1 [Example 362, (S)—N-((3-chloro-5-fluoropyridin-2-yl)methyl)-4-(5-(5-fluoro-2-methoxypyridin-4-yl)-1H-pyrazole-3-carbonyl)-4-azaspiro[2.5]octane-7-carboxamide] | 8.7 |  |
| 42.8 | CC(=O)c1cc(-c2cc(C(=O)N3CCC(C(=O)NCc4ncc(F)cc4Cl)CC34CC4)n[nH]2)c(F)cn1 (centres unmarked) [Example 477, 4-(5-(2-acetyl-5-fluoropyridin-4-yl)-1H-pyrazole-3-carbonyl)-N-((3-chloro-5-fluoropyridin-2-yl)methyl)-4-azaspiro[2.5]octane-7-carboxamide] | 307 |  |
| 3.4 | COc1cc(-c2cc(C(=O)N3CC[C@H](C(=O)NC4CCC(O)(C(C)(F)F)CC4)CC34CC4)n[nH]2)c(F)cn1 (single isomer, unassigned) [Example 375-A] |  | 1.3 |
| 54.7 | COc1cc(-c2cc(C(=O)N3CC[C@H](C(=O)N[C@H]4CN(c5ccc(C)nc5)C[C@H]4F)CC34CC4)n[nH]2)c(F)cn1 [Example 428, (S)—N-((3S,4R)-4-fluoro-1-(6-methylpyridin-3-yl)pyrrolidin-3-yl)-4-(5-(5-fluoro-2-methoxypyridin-4-yl)-1H-pyrazole-3-carbonyl)-4-azaspiro[2.5]octane-7-carboxamide] | 141 |  |
| 71.6 | COc1cc(-c2cc(C(=O)N3CC[C@H](C(=O)NC4CCC(O)(C(F)(F)F)C(O)C4)CC34CC4)n[nH]2)c(F)cn1 (single isomer, unassigned) [Example 474-F] |  | 2540 |
| 102 | COc1cc(-c2cc(C(=O)N3CC[C@H](C(=O)NC(C)c4cc5n(n4)CCN(C)C5)CC34CC4)n[nH]2)c(F)cn1 (single isomer, unassigned) [Example 475-B] |  | 583 |

Continued, molecule first:

| Molecule | AC50 (His6-TEV-PPARγ-(234-505)) [nM] | IC50 (UM-UC-9 engineered cells; Homo sapiens, UM-UC-9, 144 h) [nM] | IC50 (UM-UC-9 engineered cells) [nM] |
| --- | --- | --- | --- |
| COc1cc(-c2cc(C(=O)N3CCC(C(=O)NCC4CCn5cncc5C4)CC34CC4)n[nH]2)c(F)cn1 (single isomer, unassigned) [Example 342-A] | 50.8 |  | 1210 |
| (S)-4-(5-(5-fluoro-2-methoxypyridin-4-yl)-1H-pyrazole-3-carbonyl)-N-((1r,4S)-4-hydroxy-4-(perfluoroethyl)cyclohexyl)-4-azaspiro[2.5]octane-7-carboxamide and (S)-4-(5-(5-fluoro-2-methoxypyridin-4-yl)-1H-pyrazole-3-carbonyl)-N-((1s,4R)-4-hydroxy-4-(perfluoroethyl)cyclohexyl)-4-azaspiro[2.5]octane-7-carboxamide [Example 373] | 11.7 |  | 3 |
| COc1cc(-c2cc(C(=O)N3CCC(C(=O)NCc4cccc(Cl)c4)CC3C)n[nH]2)c(Cl)cn1 (mixture of isomers) [Example 172, 1-(5-(5-chloro-2-methoxypyridin-4-yl)-1H-pyrazole-3-carbonyl)-N-(3-chlorobenzyl)-2-methylpiperidine-4-carboxamide] | 16.5 | 163 |  |
| COc1cc(-c2cc(C(=O)N3CCC(C(=O)NC4CC(C)CC(C)(C)C4)CC3)n[nH]2)c(Cl)cn1 (mixture of isomers) [Example 150, 1-(5-(5-chloro-2-methoxypyridin-4-yl)-1H-pyrazole-3-carbonyl)-N-(3,3,5-trimethylcyclohexyl)piperidine-4-carboxamide] | 269 | 779 |  |
| COc1cc(-c2cc(C(=O)N3CCC(C(=O)NC4CCN(CCF)C(C)(C)C4)CC34CC4)n[nH]2)c(F)cn1 (mixture of isomers) [Example 425, (S)-4-(5-(5-fluoro-2-methoxypyridin-4-yl)-1H-pyrazole-3-carbonyl)-N—((S)-1-(2-fluoroethyl)-2,2-dimethylpiperidin-4-yl)-4-azaspiro[2.5]octane-7-carboxamide and (S)-4-(5-(5-fluoro-2-methoxypyridin-4-yl)-1H-pyrazole-3-carbonyl)-N—((R)-1-(2-fluoroethyl)-2,2-dimethylpiperidin-4-yl)-4-azaspiro[2.5]octane-7-carboxamide] | 901 |  | > 10000 |
| COc1cc(-c2cc(C(=O)N3CCC(C(=O)NC4COC(C)(C)C4)CC3)n[nH]2)c(Cl)cn1 (racemic) [Example 213, 1-(5-(5-chloro-2-methoxypyridin-4-yl)-1H-pyrazole-3-carbonyl)-N (5,5-dimethyltetrahydrofuran-3-yl)piperidine-4-carboxamide] | 571 | 1640 |  |
| COc1cc(-c2cc(C(=O)N3CCC(C(=O)NC4(C(F)(F)F)CCCC4)CC3)n[nH]2)c(Cl)cn1 [Example 162, 1-(5-(5-chloro-2-methoxypyridin-4-yl)-1H-pyrazole-3-carbonyl)-N-(1-(trifluoromethyl)cyclopentyl)piperidine-4-carboxamide] | 588 | 908 |  |
| COc1cc(-c2cc(C(=O)N3CC[C@@H](C(=O)N[C@H]4CC[C@@](O)(C(F)(F)F)CC4)CC34CC4)n[nH]2)c(F)cn1 (single isomer, unassigned) [Example 169-A] | 79 | 273 |  |
| COc1cc(-c2cc(C(=O)N3CCC(C(=O)Nc4cccc(C)n4)CC3)n[nH]2)c(Cl)cn1 [Example 251, 1-(5-(5-chloro-2-methoxypyridin-4-yl)-1H-pyrazole-3-carbonyl)-N-(6-methylpyridin-2-yl)piperidine-4-carboxamide] | 254 | 1380 |  |
| COc1cc(-c2cc(C(=O)N3[C@@H]4CC[C@H]3C[C@H](C(=O)NC3CCC5(CC3)OCC5(F)F)C4)n[nH]2)c(F)cn1 (mixture of isomers) [Example 307, (1R,3s,5S)—N-(3,3-difluoro-1-oxaspiro[3.5]nonan-7-yl)-8-(5-(5-fluoro-2-methoxypyridin-4-yl)-1H-pyrazole-3-carbonyl)-8-azabicyclo[3.2.1]octane-3-carboxamide] | 22.1 | 173 |  |
| COc1cc(-c2cc(C(=O)N3CC[C@@H](C(=O)NCc4cccc(Cl)c4)CC3(C)C)n[nH]2)c(Cl)cn1 (single isomer, unassigned) [Example 255-B] | 1760 | 4120 |  |
